Experimental data: PMC2191575 (The Journal of Experimental Medicine, 1994)

System: chimeric human/mouse MHC class II molecules
Assay type: binding

influenza nucleoprotein (383-395): DR-restricted synthetic peptide (SRYWAIRTRSGGN)
binding to chimeric MHC class II molecules: Specific binding was also observed
